Source: patent publication US20220401390A1, “TREATMENTS OF DIABETIC MACULAR EDEMA AND IMPAIRED VISUAL ACUITY” (KALVISTA PHARMACEUTICALS LIMITED, priority 2019, published 2022)

Key:
[1] = Study 1: plasma profile following intravitreal injection; format: in vivo, human
From the text: The secondary objectives were: • To evaluate the plasma profile of the compound of Formula A following intravitreal injection in adult male and female subjects with central involved diabetic macular edema. • To evaluate the pharmacodynamic effect of intravitreal injection of the compound of Formula A in adult male and female subjects with central involved diabetic macular edema.
(§1) Each subject returned on Day 1, 7, 14, 28 and 56 for safety and ophthalmic assessment. Pharmacokinetic assessment was also taken. In addition, the subject was contacted by the Study Site on Day 3 (+1-1 day) by telephone to inquire about the subject's visual wellbeing and to ask about any adverse events.
(§2) Single 100 μL intravitreal injection of: • 1 μg-10 μg/mL of the compound of Formula A • 3 μg-30 μg/mL of the compound of Formula A • […] of the compound of Formula A

[2] = test system: subjects with center involved diabetic macular edema; test: Study 1: safety and tolerability of single ascending intravitreal doses; format: in vivo, human
From the text: Study—an Open Label, Single Ascending Dose Study to Investigate the Safety and Tolerability of the Compound of Formula A Administered by Intravitreal Injection in Subjects with Center Involved Diabetic Macular Edema and Reduced Vision
The primary objective of the trial was to evaluate the local and systemic safety and tolerability of single ascending doses administered via intravitreal injection of the compound of Formula A in adult male and female subjects with central involved diabetic macular edema.
Following the signing of informed consent, subjects attended the clinic where screening assessments were recorded (Clinic Visit 1). When deemed eligible, subjects attended the clinic where baseline measurements were recorded (recorded as Day 0, Clinic Visit 2). Following confirmation of eligibility and the taking of baseline ophthalmic measurements, a single intravitreal injection of the compound of Formula A, was administered to the study eye as per Diabetic Retinopathy Clinical Research Network (DRCR.net) protocol.
as §1
Once the highest safe and tolerated (or practical) dose had been established, the study proceeded to Part 2 in which 5 additional subjects were treated with the established highest safe and tolerated (or practical) dose according to the same protocol with the same procedures performed as described for subjects enrolled into Part 1.
as §2
• Best Corrected Visual Acuity as measured by ETDRS EVA • Intraocular pressure • Color vision • Multifocal Electroretinogram (mfERG) • Humphrey Visual Field 24-2 (HVF 24-2) • Treatment-Emergent Adverse Events (TEAEs) • Changes on ophthalmic examination • Clinical laboratory test results • Vital signs • ECG findings

[3] = of the 14 subjects, single intravitreal injection, all dose groups

CCOc1ccc(C[C@@H](NC(=O)c2ccccc2)C(=O)N[C@@H](Cc2ccccc2)C(=O)NCc2ccc(CN)cc2)cc1 [compound of Formula A, N—[(R)-1-[(S)-1-(4-Aminomethyl-benzylcarbamoyl)-2-phenyl-ethylcarbamoyl]-2-(4-ethoxy-phenyl)-ethyl]-benzamide]
Time post dosing up to which plasma concentrations were quantifiable ([1]; 3 μg/eye dose): up to 24 hours | Time post dosing up to which plasma concentrations were quantifiable ([1]; 10 μg/eye): up to 24 hours | Time post injection up to which plasma concentrations were quantifiable ([1]; intravitreal injection of 1 μg/eye): up to 4 hours | Adverse events leading to withdrawal from the study ([2]; 14 subjects, all dose groups): nor did any event lead to withdrawal from the study | Deaths or other serious adverse events ([2]; 14 subjects, all dose groups): no deaths or other serious adverse events | Severe events ([2]; 14 subjects, all dose groups): 1 patient | Study drug-related events ([2]; 14 subjects, all dose groups): 2 patients | Subjects who reported at least one adverse event (%) [2, 3]: 71% | Subjects who reported at least one adverse event (number) [2, 3]: 10 subjects | Adverse systemic effect ([2]; review of adverse events, laboratory results, ECG and physical examinations): no evidence of any adverse effect associated with systemic exposure | Tolerability of intravitreal injection ([2]; single intravitreal injection, 1, 3 or 10 μg): well tolerated
